# What was measured:
# [1] = test system: inflammatory vitreous opacity due to endotoxin-induced uveitis; test: Endotoxin-induced uveitis (EIU) rabbit model: clinical grading of inflammatory vitreous opacity after DEX injection into the choroid through a tube; assay type: in vivo; conditions: day 2 after intravitreal LPS 100 ng; DEX solution 100 μg/100 μL injected into the choroid through the tube; 4 eyes; p<0.05 vs control (LPS only)
# Procedure: (§1) In order to investigate the effectiveness of the method for self-treatment of posterior segment eye disease according to an aspect of the present invention, whether the injection of dexamethasone (DEX) into the choroid through a tube suppresses inflammatory vitreous opacity due to endotoxin-induced uveitis was examined in a rabbit model.
# All experiments were conducted in accordance with ARVO Statement for the Use of Animals in Ophthalmic and Vision Research and the Guidelines for Experimental Animals at Iwate Medical University. Three-month-old Japanese white rabbits (purchased from KITAYAMALABES CO., LTD.) weighing 2 to 2.5 kg were used. […]
# After the tube insertion, endotoxin-induced uveitis (HU) was induced in 8 rabbits (8 eyes) by lipopolysaccharide (LPS) derived from Escherichia coli (manufactured by Sigma-Aldrich Co. LLC). […] Since maximal inflammatory symptoms were seen 2 days after injection, inflammatory vitreous opacity was evaluated 2 days after injection by ophthalmological observation and vitreous humor protein measurement. The amount of DEX injected was entered into the application and the amount of DEX was determined on the computer. The data on the quantity of DEX was then transmitted to a wireless injector (“Tofuty”, manufactured by ICOMES LAB Co., Ltd.). […]
# [2] = test system: inflammatory vitreous opacity due to endotoxin-induced uveitis; test: Endotoxin-induced uveitis (EIU) rabbit model: vitreous humor protein measurement; assay type: in vivo; conditions: day 2 after intravitreal LPS 100 ng; DEX solution 100 μg/100 μL injected into the choroid through the tube; 4 eyes; p<0.05 vs control (LPS only)
# Text: as §1
# After the tube insertion, endotoxin-induced uveitis (HU) was induced in 8 rabbits (8 eyes) by lipopolysaccharide (LPS) derived from Escherichia coli (manufactured by Sigma-Aldrich Co. LLC). 100 ng of LPS solution was injected into the vitreous body using a 27G needle at a 12 o'clock position, 3 mm posterior to the corneal limbus. […] Since maximal inflammatory symptoms were seen 2 days after injection, inflammatory vitreous opacity was evaluated 2 days after injection by ophthalmological observation and vitreous humor protein measurement. The amount of DEX injected was entered into the application and the amount of DEX was determined on the computer. The data on the quantity of DEX was then transmitted to a wireless injector (“Tofuty”, manufactured by ICOMES LAB Co., Ltd.). […]
# For protein measurements, four eyes in each group were used on day 2 after procedure. […] The protein content of vitreous humor was determined using a Bio-Rad assay kit with bovine serum albumin as a standard-dilution reference curve. […]
compound,measurement,setting,value
"C[C@@H]1C[C@H]2[C@@H]3CCC4=CC(=O)C=C[C@]4(C)[C@@]3(F)[C@@H](O)C[C@]2(C)[C@@]1(O)C(=O)CO [DEX, dexamethasone]",Clinical grading of vitreous opacity (grade 0 to 4),[1],0.75±0.96
same,Protein concentration in vitreous humor,[2],20.5 ± 15.0 mg/mL

# Reference: US20240023806A1, “METHOD FOR SELF-DIAGNOSIS AND METHOD FOR SELF-TREATMENT OF POSTERIOR SEGMENT EYE DISEASE” (priority 2022, published 2024)
